Here are results for one compound from patent US20100137429A1, “COMPOSITION FOR T[…] TRANSMUCOSAL ADMINISTRATION” (FUJIMOTO CO., LTD., priority 2007, published 2010).

Structures are written as SMILES. Structures can show the parent of a compound that is named as a salt. Where two headings read alike, the source gives them in different places.

The nature of series [1]: Test Example 1: plasma level after single intravenous, subcutaneous and oral administration. The class given is in vivo, male SD rats. The following applies: for bioavailability / Cmax / Tmax / AUC: rat, plasma, fasted male SD rats; for bioavailability: read-out: F (bioavailability); for AUC: trapezoidal method. As to the method: 0.5 mg/kg of the (−) isomer of the present compound (hydrochloride) (1 mL/kg of 0.5 mg/mL aqueous solution in physiological saline) was administered to the tail vein of each of male SD rats fasted since the previous day, and 5 minutes, 10 minutes, 20 minutes, 30 minutes, 45 minutes, 1 hour, 1.5 hours, 2 hours, 3 hours, 4 hours, and 6 hours after administration, whole blood was collected from the abdominal aorta.
1 mg/kg of the (−) isomer of the present compound (hydrochloride) (5 mL/kg of 0.2 mg/mL aqueous solution) was administered subcutaneously to the back of the neck of each of male SD rats fasted since the previous day, and 5 minutes, 10 minutes, 20 minutes, 30 minutes, 1 hour, 1.5 hours, 2 hours, 3 hours, 4 hours, 6 hours, 8 hours and 10 hours after administration, whole blood was collected from the abdominal aorta.
10 mg/kg of the (−) isomer of the present compound (hydrochloride) (10 mL/kg of 1 mg/mL aqueous solution) was administered forcedly orally to male SD rats fasted since the previous day, and 5 minutes, 10 minutes, 20 minutes, 30 minutes, 1 hour, 1.5 hours, 2 hours, 3 hours, 4 hours, 6 hours, 8 hours and 10 hours after administration, whole blood was collected from the abdominal aorta.
The blood collected from each rat was transferred to a blood collecting tube containing 2Na EDTA, then sufficiently mixed by turning the tube upside down, and then centrifuged at 3,000 rpm for 10 minutes, and the obtained plasma was recovered. The plasma was freeze-preserved at −20° C. until analysis. The plasma level of the compound was measured by high performance liquid chromatography (HPLC). As a pharmacokinetic parameter, AUCO-t (area under the blood level-time curve, hereinafter referred to as “AUC”) was calculated by a trapezoidal method, and Cmax (maximum blood concentration) and tmax (time-to-maximum blood concentration) were determined from actual measurement values.

Series [2] can be described thus: Test Example 4: plasma and brain homogenate concentrations after oral and intraoral administration. The class given is in vivo, male SD rats. The conditions noted are these: rats. As to the method:
The (−) isomer of the present compound (hydrochloride) was administered forcedly orally in a dose of 10 mg/kg (10 mL/kg of 1 mg/mL aqueous solution) to fasted male SD rats, and 5, 15, 30, 60 and 120 minutes after administration, whole blood was collected from the abdominal aorta.
The (−) isomer of the present compound (hydrochloride) was dropped in a dose of 1 mg/kg (0.1 mL/kg of 10 mg/mL aqueous solution) into the oral cavity of each fasted male SD rat anesthetized under ether. In the case of the powder preparation, the preparation which had been weighed so as to be in a dose of 1 mg/kg was placed beneath the tongue of each rat under anesthesia. In either case, the rats were left for 1 minute under anesthesia and then returned to cages, and 5, 15, 30, 60 and 120 minutes after administration, whole blood was collected from the abdominal aorta.
The blood collected from each rat was treated in the same manner as in Test Example 1. After blood collection, blood in the body of each rat was perfused with refrigerated physiological saline, and the cerebrum was excised therefrom. The cerebrum was cut thin with a knife and homogenized in 5 mL physiological saline added per gram of the tissues. 0.5 mL acetonitrile was added to 0.5 mL of the brain homogenate which was then stirred by means of a test tube mixer and centrifuged at 10,000 rpm for 5 minutes, to give a supernatant.
The concentrations of the compound in the plasma and in the brain homogenate were measured by LC/MS/MS. Simultaneously, the metabolites were quantitatively determined by using metabolite standards.

The mark [3] stands for this setting: intraoral 1 mg/kg vs oral 10 mg/kg.

As to `CCCNC(CCC)Cc1cc2ccccc2o1` (single isomer, unassigned; (-)) [(−) isomer of the present compound (hydrochloride), (−)-1-(benzofuran-2-yl)-2-propylaminopentane], the “blood level in the oral administration” value in series [1] (oral 10 mg/kg, rats) is recorded as “low as compared with the given dose”. In series [1] (sc, subcutaneous, 1 mg/kg), the bioavailability stood at 144%, the Cmax was 135 ng/mL, the time to peak (Tmax) was found to be 10.2 min and the exposure (AUC) came out at 231 ng·h/mL. In series [1] (oral, 10 mg/kg), the bioavailability worked out at 4.1%, the peak level (Cmax) was 86.9 ng/mL, the time to peak (Tmax) amounted to 10.2 min and the AUC turned out to be 65.4 ng·h/mL. In series [1] (intravenous, 0.5 mg/kg), the Cmax was 94.1 ng/mL, the Tmax came to 4.8 min and the AUC came out at 80 ng·h/mL. In series [2] (intraoral 1 mg/kg (aqueous solution, powder preparation) vs oral 10 mg/kg), the “blood concentration in intraoral administration compared with oral administration” value is “equal to or higher than that in the oral administration”. Moreover, in series [2] (setting [3]), the “metabolites in intraoral administration compared with oral administration” value was “lower metabolites” and the “transferability of the compound to the brain (concentration in the brain homogenate)” value is on record as “significantly higher than in the oral administration”.
